From US8012949B2, “Bisphosphonate compounds and methods with enhanced potency for multiple targets including FPPS, GGPPS, and DPPS” (The Board of Trustees of the University of Illinois, priority 2004, dated 2011)
Where two headings read alike, the source gives them in different places.

Tests used:
[1] = test system: MCF-7 (breast adenocarcinoma); test: MCF-7 cell growth inhibition (MTT), incl. FOH/GGOH rescue; type: cell-based, human; settings: for MCF7 Cell pIC50: Table 3, determined in this work; for IC50: Homo sapiens
Description: (§1) Cell Growth Inhibition Assays. […] A broth microdilution method was used to determine IC50 values for growth inhibition by each bisphosphonate. […] NBPs were typically initially dissolved in H2O (0.01 M) while NNBPs were typically dissolved in DMSO (0.01 M).
GraphPad PRISM® version 4.0 software for windows (GraphPad Software Inc., San Diego, Calif., www.graphpad.com) was used to fit the data to a rectangular hyperbolic function: I=(ImaxC)/(IC50+C);
For the “rescue” experiments, stock solutions of FOH or GGOH were prepared (in ethanol) and the requisite amounts added to the incubation media to produce a fixed 20 μM concentration.

Vγ2Vδ2 T cells = test: γδ T cell activation (TNF-α release and proliferation); type: cell-based, human; settings: Table 2, -log10(value, M); for EC50: Homo sapiens, T-cell, read-out: γδ T Cell Avg pED50 (converted)
Experimental: γδ T Cell Assays. Vγ2Vδ2 T cell TNF-α release and proliferation were performed basically as described previously^1. Briefly, to measure bioactivity for Vγ2Vδ2 T cells, the CD4^+ JN.24, CD4^+ HF.2, CD8αα^+ 12G12, or the CD4^−8^− HD.108 Vγ2Vδ2 T cell clones were stimulated with phosphoantigens in the presence of CP.EBV (an EBV transformed B cell line) for CD4^+ clones or Va-2 (a transformed fibroblast) for CD8αα^+ and CD4^−8^− clones. CP.EBV and Va-2 were fixed with 0.05% glutaraldehyde (EM grade, Sigma, Mo.) for use as APCs. […] Curve fitting minima for each experiment (e.g. TNF-α release from JN.24 cells) were determined using the Global Fitting technique, as implemented in Prism 4.0. Curve fitting maxima were optimized for each individual compound without the use of any constraints.

[2] = test system: NCI-H460 (lung large cell); test: NCI-H460 cell growth inhibition (MTT); type: cell-based, human; settings: Table 1, experimental
Description: as §1
(§2) GraphPad PRISM® version 4.0 software for windows (GraphPad Software Inc., San Diego, Calif., www.graphpad.com) was used to fit the data to a rectangular hyperbolic function: I=(ImaxC)/(IC50+C); […]

[3] = test system: SF-268 (central nervous system glioblastoma); test: SF-268 cell growth inhibition (MTT); type: cell-based, human; settings: Table 1, experimental
Description: as §1, §2

human DPPS = molecular target: T1, human DPPS (Homo sapiens, UniProt Q5T2R2); test: human DPPS enzyme inhibition; type: biochemical; settings: Table 1, experimental
T1 construct: made in house
T1 sequence (Q5T2R2 1-415): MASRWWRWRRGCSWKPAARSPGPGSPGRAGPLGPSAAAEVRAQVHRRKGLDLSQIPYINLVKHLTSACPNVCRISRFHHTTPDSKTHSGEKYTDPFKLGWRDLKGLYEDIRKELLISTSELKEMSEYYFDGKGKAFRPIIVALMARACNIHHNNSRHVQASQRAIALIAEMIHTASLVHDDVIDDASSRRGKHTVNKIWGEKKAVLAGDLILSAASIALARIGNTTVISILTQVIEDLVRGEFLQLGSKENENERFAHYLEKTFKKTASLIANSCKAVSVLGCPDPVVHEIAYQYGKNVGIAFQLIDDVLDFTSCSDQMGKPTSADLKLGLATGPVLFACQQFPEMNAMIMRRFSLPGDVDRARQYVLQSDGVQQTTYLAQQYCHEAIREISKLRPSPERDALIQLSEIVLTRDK
T1 sequence (Q86YH6 1-399 partner): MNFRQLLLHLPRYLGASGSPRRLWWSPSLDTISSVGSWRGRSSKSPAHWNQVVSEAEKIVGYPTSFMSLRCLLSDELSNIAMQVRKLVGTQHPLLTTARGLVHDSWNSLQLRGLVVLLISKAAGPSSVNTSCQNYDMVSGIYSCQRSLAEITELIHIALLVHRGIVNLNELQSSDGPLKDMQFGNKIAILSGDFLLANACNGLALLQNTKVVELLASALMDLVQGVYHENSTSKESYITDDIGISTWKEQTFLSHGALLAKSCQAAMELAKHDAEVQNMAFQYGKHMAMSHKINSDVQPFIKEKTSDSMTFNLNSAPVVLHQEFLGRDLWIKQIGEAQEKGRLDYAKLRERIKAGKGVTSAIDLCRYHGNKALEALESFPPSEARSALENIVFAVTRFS
Description: To test our polypharmaceutical hypothesis, we expressed three enzymes: human FPPS, GGPPS and DPPS, and tested each for their inhibition by a series of bisphosphonates.

[4] = MCF7, Table 1, experimental, read-out: MCF-7 pIC50 (converted)
[5] = MCF7, Table 2, -log10(value, M), read-out: MCF-7 Cell pIC50 (converted)

Row | SMILES | MCF-7 Cell pIC50 (M) ([1]; Table 2, -log10(value, M)) | γδ T Cell Avg pED50 (M) (Vγ2Vδ2 T cells) | MCF7 Cell pIC50 [1] | further results
1 | CC(C)(C)C(=O)OCOP(=O)(O)C(C[n+]1ccccc1)P(=O)([O-])O (stereo not drawn) [BPH-656] | 4.88 | 4.29 |  | 
2 | O=P([O-])(O)C(C[n+]1ccc(Cc2ccccc2)cc1)P(=O)(O)O (stereo not drawn) [BPH-481] | 3.90 | 3.45 |  | 
3 | O=P(O)(O)C(Cc1cccnc1)P(=O)(O)O [BPH-290] | 3.47 | 4.21 |  | 
4 | O=P(O)(O)C(O)(Cn1ccnc1)P(=O)(O)O [BPH-91, reference compound] |  |  | 4.81 | NCI-H460 pIC50 (M) [2]: 4.8 M; MCF-7 pIC50 (M) ([1]; Table 1, experimental): 4.7 M; SF-268 pIC50 (M) [3]: 4.8 M; DPPS pKi (human DPPS): 7.4
5 | CN(CCCCc1ccccc1)CCC(O)(P(=O)(O)O)P(=O)(O)O [BPH-210, reference compound] |  |  | 4.08 | 
6 | CCC[S+](C)CC(P(=O)([O-])O)P(=O)(O)O (stereo not drawn) [BPH-685] | 4.02 | 3.81 |  | NCI-H460 pIC50 (M) [2]: 3.9 M; MCF-7 pIC50 (M) ([1]; Table 1, experimental): 3.6 M; SF-268 pIC50 (M) [3]: 3.7 M; DPPS pKi (human DPPS): 6.7
7 | CCc1ccc[n+](CC(P(=O)([O-])O)P(=O)(O)O)c1 (stereo not drawn) [BPH-475] | 4.37 | 3.94 |  | 
8 | CCCCOc1ccc[n+](CC(P(=O)([O-])O)P(=O)(O)O)c1 (stereo not drawn) [BPH-721] | 4.70 | 4.10 |  | 
9 | O=P(O)(O)C(O)(C[n+]1cccc(F)c1)P(=O)(O)O [BPH-461, 3-fluoro-1-(2-hydroxy-2,2-bisphosphonoethyl)-pyridinium] | 4.34 | 4.16 |  | 
10 | CCCCCCCCCCCC[S+](C)CC(P(=O)([O-])O)P(=O)(O)O (stereo not drawn) [BPH-688] |  |  |  | IC50 [1, 4]: 6.31 µM; IC50 [1, 5]: 0.501 µM; EC50 (Vγ2Vδ2 T cells): 5.62 µM
11 | CCCCCN(C)CCC(O)(P(=O)(O)O)P(=O)(O)O [BPH-24, reference compound] |  |  |  | NCI-H460 pIC50 (M) [2]: 3.7 M; MCF-7 pIC50 (M) ([1]; Table 1, experimental): 3.7 M; SF-268 pIC50 (M) [3]: 3.8 M; DPPS pKi (human DPPS): 7.3
12 | CC(C)(C)C(=O)OCOP(=O)(O)C(O)(C[n+]1cccc(F)c1)P(=O)([O-])O (stereo not drawn) [BPH-670] | 4.64 | 4.16 |  | 
13 | CC(C)(C)C(=O)OCOP(=O)(O)C(C[n+]1cccc(F)c1)P(=O)([O-])O (stereo not drawn) [BPH-669] | 4.75 | 4.49 |  | 
14 | CN(CCc1ccccc1)CCC(O)(P(=O)(O)O)P(=O)(O)O [BPH-208, reference compound] |  |  | 4.38 | 
15 | O=P([O-])(O)C(C[n+]1ccccc1)P(=O)(O)O (stereo not drawn) [BPH-470] | 4.14 | 4.12 |  | 
16 | CCCCCCCCCCCCCCCCCC[S+](C)CC(P(=O)([O-])O)P(=O)(O)O (stereo not drawn) [BPH-696] | 5.85 | 4.63 |  | 
17 | O=P([O-])(O)C(C[n+]1cccc(Cc2ccccc2)c1)P(=O)(O)O (stereo not drawn) [BPH-480] | 3.42 | 3.33 |  | 
18 | O=P(O)(O)C(O)(Cc1c[nH]cn1)P(=O)(O)O [BPH-18, reference compound] |  |  | 5.41 | 
19 | CCCN(C)CC(P(=O)(O)O)P(=O)(O)O [BPH-693] | 5.32 | 5.28 |  | 
20 | CCCCCCCCOc1ccc[n+](CC(P(=O)([O-])O)P(=O)(O)O)c1 (stereo not drawn) [BPH-714] | 6.82 | 5.29 |  | 

Row | SMILES | MCF-7 Cell pIC50 (M) ([1]; Table 2, -log10(value, M)) | γδ T Cell Avg pED50 (M) (Vγ2Vδ2 T cells) | MCF7 Cell pIC50 [1] | further results
21 | CCCCCCCCCC[S+](C)CC(P(=O)([O-])O)P(=O)(O)O (stereo not drawn) [BPH-687] | 6.20 | 5.09 |  | 
22 | O=P(O)(O)C(Cc1nccs1)P(=O)(O)O [BPH-58, reference compound] |  |  | 3.48 | 
23 | NCCCC(O)(P(=O)(O)O)P(=O)(O)O [BPH-1, reference compound] |  |  | 3.31 | NCI-H460 pIC50 (M) [2]: 3.5 M; MCF-7 pIC50 (M) ([1]; Table 1, experimental): 3.3 M; SF-268 pIC50 (M) [3]: 3.5 M; DPPS pKi (human DPPS): 6.3
24 | C[S+](CCCc1ccccc1)CC(P(=O)([O-])O)P(=O)(O)O (stereo not drawn) [BPH-686] | 4.24 | 3.81 |  | 
25 | O=P(O)(O)C(O)(Cc1cnc2ccccn12)P(=O)(O)O [BPH-261] |  |  |  | NCI-H460 pIC50 (M) [2]: 4.8 M; MCF-7 pIC50 (M) ([1]; Table 1, experimental): 4.8 M; SF-268 pIC50 (M) [3]: 4.9 M; DPPS pKi (human DPPS): 6.8
26 | CCCCCCCC[S+](C)CC(P(=O)([O-])O)P(=O)(O)O (stereo not drawn) [BPH-683] |  |  |  | IC50 ([2]; Homo sapiens, NCI-H460, read-out: NCI-H460 pIC50 (converted)): 15.8 µM; IC50 [1, 4]: 20 µM; IC50 [1, 5]: 6.76 µM; EC50 (Vγ2Vδ2 T cells): 107 µM; IC50 ([3]; Homo sapiens, SF-268, read-out: SF-268 pIC50 (converted)): 12.6 µM; Ki (human DPPS; read-out: DPPS_pKi (converted)): 0.0631 µM
27 | O=P(O)(O)C(N1CCCCCC1)P(=O)(O)O [BPH-57, reference compound] |  |  | 3.60 | 
28 | NCCC(O)(P(=O)(O)O)P(=O)(O)O [pamidronate, reference compound] |  |  |  | IC50 ([1]; MCF7, FIG. 2A, read-out: IC50, MCF-7 tumor cell growth inhibition): ~300 µM
29 | NCCC(O)(P(=O)(O)O)P(=O)(O)O [BPH-5, reference compound] |  |  | 3.85 | NCI-H460 pIC50 (M) [2]: 4.0 M; MCF-7 pIC50 (M) ([1]; Table 1, experimental): 3.9 M; SF-268 pIC50 (M) [3]: 3.5 M; DPPS pKi (human DPPS): 6.3
30 | CN(CCOc1ccccc1)CCC(O)(P(=O)(O)O)P(=O)(O)O [BPH-219, reference compound] |  |  | 4.93 | 
31 | O=P([O-])(O)C(C[S+]1CCCC1)P(=O)(O)O (stereo not drawn) [BPH-682] | 4.02 | 3.84 |  | 
32 | CN(CCCc1ccccc1)CCC(O)(P(=O)(O)O)P(=O)(O)O [BPH-209, reference compound] |  |  | 4.01 | 
33 | O=P(O)(O)C(O)(Cc1cccnc1)P(=O)(O)O [BPH-2] | 3.13 | 4.29 |  | NCI-H460 pIC50 (M) [2]: 3.7 M; MCF-7 pIC50 (M) ([1]; Table 1, experimental): 3.8 M; SF-268 pIC50 (M) [3]: 3.9 M; DPPS pKi (human DPPS): 7.3
34 | CCCCCCCCCCCCCCCC[S+](C)CC(P(=O)([O-])O)P(=O)(O)O (stereo not drawn) [BPH-695] | 5.95 | 5.68 |  | 
35 | O=P(O)(O)C(N1CCCCC1)P(=O)(O)O [BPH-72, reference compound] |  |  | 3.34 | 
36 | O=P([O-])(O)C(C[n+]1cccc(F)c1)P(=O)(O)O (stereo not drawn) [BPH-477] | 4.77 | 3.80 |  | 
37 | O=P(O)(O)C(NC1CCCCCC1)P(=O)(O)O [BPH-31, reference compound] |  |  | 4.30 | 
38 | CCCCCCOc1ccc[n+](CC(P(=O)([O-])O)P(=O)(O)O)c1 (stereo not drawn) [BPH-723] | 5.76 | 4.44 |  | 
39 | CCCCc1ccc[n+](CC(P(=O)([O-])O)P(=O)(O)O)c1 (stereo not drawn) [BPH-476] | 4.58 | 4.00 |  | 
40 | CCCCCCCCCCCCc1ccc[n+](CC(P(=O)([O-])O)P(=O)(O)O)c1 (stereo not drawn) [BPH-677] | 4.34 | 4.88 |  | 
